According to US12653191B2, “Active compound combinations” (Bayer Aktiengesellschaft, priority 2020, dated 2026):
Values joined by “and” are separate entries in the source; they are usually repeats but may differ in a detail not shown here. Identical values can stand only once. Like-named read-outs stand apart in the source and are kept apart here.

Legend:
Fusarium culmorum [1] = assay: in vitro-Test with fungal microorganisms, Method B (tables G5-G15); type: cell-based
Procedure: (§1) Example: In Vitro-Test with Fungal Microorganisms
(§2) Wells of 96-well microtiter plates are filled with 30 μl of a preparation of test compound or compound combination in methanol+emulsifier alkylaryl-polyglycol-ether. Thereafter, the solvent is evaporated in a hood. At the next step, 200 μl of liquid growth medium is given, that has been amended with an appropriate concentration of spores or mycelium suspension of the test fungus.
(§3) With the aid of a photometer, the extinction in all wells is measured at the wavelength of 600 nm.
(§4) The microtiter plates are incubated for 3 to 7 days at 20° C. and 85% relative humidity. After the incubation inhibition of growth is determined photometrically. Efficacy is calculated in relation to the untreated control, 0% efficacy means fungal growth as high as in untreated control while 100% efficacy means no fungal growth is measured.
(§5) The data in tables A1 to A12, B1 to B14, C1 to C10, D1 to D8, E1 to E8, F1 to F11, G1 to G4, H1 to H4 and I1 to I5 were collected according to Method A. The data in tables A13 to A22, B15 to B18, C11 to C20, E9 to E16, F12 to F15, G5 to G15, H5 to H8, I6 to I11 and J1 to J11 were collected according to Method B.

[2] = test system: Ustilago segetum var. avenae; assay: in vitro-Test with fungal microorganisms, Method B (tables I6-I11); type: cell-based
Procedure: as §1, §2, §3, §4, §5

[3] = test system: Colletotrichum lindemuthianum; assay: in vitro-Test with fungal microorganisms, Method A (tables D1-D8); type: cell-based
Procedure: as §1
(§6) Wells of 96-well microtiter plates are filled with 10 μl of a preparation of test compound or compound combination in methanol+emulsifier alkylaryl-polyglycol-ether. Thereafter, the solvent is evaporated in a hood. At the next step, 100 μl of liquid potato dextrose medium is given into each well, that has been amended with an appropriate concentration of spores or mycelium suspension of the test fungus.
(§7) With the aid of a photometer, the extinction in all wells is measured at the wavelength of 620 nm.
(§8) The microtiter plates are incubated at 20° C. and 85% relative humidity. The inhibition of growth is determined again photometrically 3-5 days after the application. Efficacy is calculated in relation to the untreated control, 0% efficacy means fungal growth as high as in untreated control while 100% efficacy means no fungal growth is measured.
as §5

Cordana musae [4] = assay: in vitro-Test with fungal microorganisms, Method B (tables E9-E16); type: cell-based; settings: for Efficacy: single active; for Efficacy %: single substance
Procedure: as §1, §2, §3, §4, §5

Alternaria alternata = assay: in vitro-Test with fungal microorganisms, Method B (tables A13-A22); type: cell-based; settings: single compound
Procedure: as §1, §2, §3, §4, §5

Cordana musae [5] = assay: in vitro-Test with fungal microorganisms, Method A (tables E1-E8); type: cell-based
Procedure: as §1, §6, §7, §8, §5

Botrytis cinerea [6] = assay: in vitro-Test with fungal microorganisms, Method A (tables B1-B14); type: cell-based
Procedure: as §1, §6, §7, §8, §5

[7] = test system: Ustilago segetum var. avenae; assay: in vitro-Test with fungal microorganisms, Method A (tables I1-I5); type: cell-based; settings: alone
Procedure: as §1, §6, §7, §8, §5

Alternaria alternate = assay: in vitro-Test with fungal microorganisms, Method A (tables A1-A12); type: cell-based, Alternaria alternata; settings: applied alone
Procedure: as §1, §6, §7, §8, §5

Cercospora beticola [8] = assay: in vitro-Test with fungal microorganisms, Method B (tables C11-C20); type: cell-based
Procedure: as §1, §2, §3, §4, §5

Diaporthe citri = assay: in vitro-Test with fungal microorganisms, Method A (tables F1-F11); type: cell-based; settings: applied alone
Procedure: as §1, §6, §7, §8, §5

Colletotrichum coccodes = assay: in vitro-Test with fungal microorganisms, Method B (tables J1-J11); type: cell-based
Procedure: as §1, §2, §3, §4, §5

Botrytis cinerea [9] = assay: in vitro-Test with fungal microorganisms, Method B (tables B15-B18); type: cell-based
Procedure: as §1, §2, §3, §4, §5

Cercospora beticola [10] = assay: in vitro-Test with fungal microorganisms, Method A (tables C1-C10); type: cell-based
Procedure: as §1, §6, §7, §8, §5

Fusarium culmorum [11] = assay: in vitro-Test with fungal microorganisms, Method A (tables G1-G4); type: cell-based; settings: alone
Procedure: as §1, §6, §7, §8, §5

[12] = single active compound, 0.04 ppm
[13] = single active compound, 0.2 ppm
[14] = Botrytis cinerea, read-out: Efficacy
[15] = Botrytis cinerea, alone, read-out: Efficacy %

Cn1cc(C(=O)Nc2ccc(F)cc2-c2ccc(Cl)c(Cl)c2)c(C(F)F)n1 [(2.002) bixafen, bixafen]
Efficacy (Fusarium culmorum [1]; 0.008 ppm alone): 2% | Efficacy (Fusarium culmorum [1]; 0.04 ppm alone): 17% | Efficacy (Fusarium culmorum [1]; single active compound, 0.008 ppm): 2% | Efficacy (Fusarium culmorum [1]; [12]): 7% | Efficacy (Fusarium culmorum [1]; [13]): 11% | Efficacy (Fusarium culmorum [1]; single active compound, 1 ppm): 18% | Efficacy % ([2]; 0.2 ppm): 44% | Efficacy % ([3]; single active at 0.008 ppm): 6% and 0% | Efficacy % ([3]; single active at 0.04 ppm): 0% | Efficacy % ([3]; single active at 0.2 ppm): 0% | Efficacy (Cordana musae [4]; 0.008 ppm): 17% | Efficacy (Cordana musae [4]; 0.04 ppm): 0% | Efficacy (Cordana musae [4]; 0.2 ppm): 0% | Efficacy (Cordana musae [4]; 1 ppm): 2% | Efficacy % (Cordana musae [4]; 0.008 ppm): 0% | Efficacy % (Cordana musae [4]; 0.04 ppm): 0% | Efficacy % (Cordana musae [4]; 0.2 ppm): 0% | Efficacy (Alternaria alternata; 0.008 ppm): 13% and 23% | Efficacy (Alternaria alternata; 0.04 ppm): 67% | Efficacy (Alternaria alternata; 1 ppm): 59% and 85% | Efficacy % (Cordana musae [5]; single substance, 0.008 ppm): 0% and 8% | Efficacy % (Cordana musae [5]; single substance, 0.04 ppm): 2% and 0% | Efficacy % (Cordana musae [5]; single substance, 0.2 ppm): 0% | Efficacy % (Cordana musae [5]; single substance, 1.0 ppm): 0% | Efficacy (Botrytis cinerea [6]; 0.04 ppm): 22% | Efficacy (Botrytis cinerea [6]; 0.2 ppm): 63% | Efficacy (Botrytis cinerea [6]; 1.0 ppm): 67% | Efficacy % ([7]; 0.008 ppm): 0% | Efficacy % ([7]; 0.04 ppm): 0% | Efficacy % ([7]; 0.2 ppm): 100% | Efficacy % ([7]; 1.0 ppm): 100% | Efficacy % (Alternaria alternate; 0.008 ppm): 29% | Efficacy % (Alternaria alternate; 0.04 ppm): 23% | Efficacy % (Alternaria alternate; 0.2 ppm): 66% | Efficacy % (Alternaria alternate; 1.0 ppm): 46% | Efficacy % (Cercospora beticola [8]; 1 ppm): 0% | Efficacy % (Cercospora beticola [8]; single compound, 0.2 ppm): 14% | Efficacy % (Cercospora beticola [8]; single compound, 1 ppm): 20% | Efficacy (Diaporthe citri; 0.2 ppm): 0% and 5% | Efficacy (Diaporthe citri; 1.0 ppm): 0% and 5% | Efficacy % (Colletotrichum coccodes; 0.008 ppm): 33% | Efficacy % (Colletotrichum coccodes; 0.04 ppm): 45% | Efficacy % (Colletotrichum coccodes; 0.2 ppm): 0% | Efficacy % (Colletotrichum coccodes; 1 ppm): 0% | Efficacy % (Colletotrichum coccodes; single active compound at 0.008 ppm): 30% | Efficacy % (Botrytis cinerea [9]; alone, 0.008 ppm): 6% | Efficacy % (Botrytis cinerea [9]; alone, 0.2 ppm): 0% | Efficacy % (Botrytis cinerea [9]; alone, 1 ppm): 66% | Efficacy % (Cercospora beticola [10]; 0.2 ppm): 0% | Efficacy % (Cercospora beticola [10]; 1.0 ppm): 0%

CC(C)c1ccc(Cl)cc1CN(C(=O)c1c(C(F)F)nn(C)c1F)C1CC1 [(2.038) isoflucypram, isoflucypram]
Efficacy (Fusarium culmorum [1]; 0.008 ppm alone): 0% | Efficacy (Fusarium culmorum [1]; 0.04 ppm alone): 0% | Efficacy (Fusarium culmorum [1]; 0.2 ppm alone): 10% | Efficacy (Fusarium culmorum [1]; 1 ppm alone): 24% | Efficacy (Fusarium culmorum [1]; [12]): 10% | Efficacy (Fusarium culmorum [1]; [13]): 19% and 20% | Efficacy % ([2]; 0.008 ppm): 9% | Efficacy % ([2]; 0.04 ppm): 17% | Efficacy % ([2]; 0.2 ppm): 100% | Efficacy % ([2]; alone, 0.008 ppm): 2% | Efficacy % ([2]; alone, 0.04 ppm): 5% | Efficacy % ([2]; alone, 0.2 ppm): 100% | Efficacy % ([3]; single active at 0.008 ppm): 0% | Efficacy % ([3]; single active at 0.04 ppm): 14% | Efficacy % ([3]; single active at 0.2 ppm): 0% | Efficacy % ([3]; single active at 1.0 ppm): 18% | Efficacy (Cordana musae [4]; 0.2 ppm): 9% | Efficacy (Cordana musae [4]; 1 ppm): 20% | Efficacy (Alternaria alternata; 0.008 ppm): 22% | Efficacy (Alternaria alternata; 1 ppm): 77% | Efficacy % (Cordana musae [5]; mixing partner alone, 0.008 ppm): 0% | Efficacy % (Cordana musae [5]; mixing partner alone, 0.04 ppm): 0% | Efficacy % (Cordana musae [5]; mixing partner alone, 0.2 ppm): 0% | Efficacy % (Cordana musae [5]; mixing partner alone, 1.0 ppm): 0% | Efficacy % (Cordana musae [5]; single substance, 0.008 ppm): 0% | Efficacy % (Cordana musae [5]; single substance, 0.04 ppm): 0% | Efficacy % (Cordana musae [5]; single substance, 0.2 ppm): 0% and 1% | Efficacy % (Cordana musae [5]; single substance, 1.0 ppm): 22% and 27% | Efficacy (Botrytis cinerea [6]; 1.0 ppm): 75% | Efficacy % (Botrytis cinerea [6]; alone, 0.008 ppm): 5% | Efficacy % (Botrytis cinerea [6]; alone, 0.04 ppm): 53% | Efficacy % (Botrytis cinerea [6]; alone, 0.2 ppm): 58% | Efficacy % (Botrytis cinerea [6]; alone, 1.0 ppm): 77% | Efficacy % ([7]; 0.008 ppm): 6% and 0% | Efficacy % ([7]; 0.2 ppm): 100% | Efficacy % ([7]; 1.0 ppm): 100% | Efficacy % (Alternaria alternate; 0.008 ppm): 43% and 52% | Efficacy % (Alternaria alternate; 0.04 ppm): 70% and 71% and 74% | Efficacy % (Alternaria alternate; 0.2 ppm): 77% and 85% and 83% | Efficacy % (Alternaria alternate; 1.0 ppm): 82% and 84% | Efficacy % (Cercospora beticola [8]; 0.008 ppm): 8% | Efficacy % (Cercospora beticola [8]; 0.04 ppm): 14% | Efficacy % (Cercospora beticola [8]; 0.2 ppm): 16% | Efficacy % (Cercospora beticola [8]; 1 ppm): 44% | Efficacy % (Cercospora beticola [8]; single compound, 0.04 ppm): 14% and 13% | Efficacy % (Cercospora beticola [8]; single compound, 1 ppm): 40% and 35% | Efficacy (Diaporthe citri; 0.008 ppm): 0% | Efficacy (Diaporthe citri; 0.04 ppm): 0% | Efficacy (Diaporthe citri; 1.0 ppm): 30% and 38% | Efficacy % (Colletotrichum coccodes; 0.008 ppm): 0% | Efficacy % (Colletotrichum coccodes; 0.04 ppm): 46% | Efficacy % (Colletotrichum coccodes; 0.2 ppm): 8% | Efficacy % (Colletotrichum coccodes; 1 ppm): 0% | Efficacy % (Colletotrichum coccodes; single active compound at 0.04 ppm): 0% and 1% | Efficacy % (Botrytis cinerea [9]; 0.2 ppm alone): 53% | Efficacy % (Botrytis cinerea [9]; 1 ppm alone): 70% | Efficacy % (Cercospora beticola [10]; 0.008 ppm alone): 10% | Efficacy % (Cercospora beticola [10]; 0.04 ppm alone): 0% | Efficacy % (Cercospora beticola [10]; 0.2 ppm alone): 44% | Efficacy % (Cercospora beticola [10]; 1.0 ppm alone): 69%

CCN(C)C=Nc1cc(C)c(Oc2ccccc2F)cc1Cl [(15.064), N′-[2-chloro-4-(2-fluorophenoxy)-5-methylphenyl]-N-ethyl-N-methylimidoformamide]
inhibition of growth at 0.08 ppm ([3]; Colletotrichum lindemuthianum, mixing partner alone, 0.08 ppm, read-out: Efficacy %): 16% | inhibition of growth at 0.4 ppm ([3]; Colletotrichum lindemuthianum, mixing partner alone, 0.4 ppm, read-out: Efficacy %): 0% | inhibition of growth at 2 ppm ([3]; Colletotrichum lindemuthianum, mixing partner alone, 2.0 ppm, read-out: Efficacy %): 0% | inhibition of growth at 2 ppm (Fusarium culmorum [11]; Fusarium culmorum, 2.0 ppm, read-out: Efficacy): 0% | inhibition of growth at 10 ppm (Fusarium culmorum [11]; Fusarium culmorum, 10.0 ppm, read-out: Efficacy): 1% | inhibition of growth at 0.4 ppm (Cordana musae [5]; Neocordana musae, mixing partner alone, 0.4 ppm, read-out: Efficacy %): 0% | inhibition of growth at 2 ppm (Cordana musae [5]; Neocordana musae, mixing partner alone, 2.0 ppm, read-out: Efficacy %): 0% | inhibition of growth at 10 ppm (Cordana musae [5]; Neocordana musae, mixing partner alone, 10.0 ppm, read-out: Efficacy %): 27% | inhibition of growth at 0.08 ppm (Botrytis cinerea [6]; [14]): 5% | inhibition of growth at 0.4 ppm (Botrytis cinerea [6]; Botrytis cinerea, 0.4 ppm, read-out: Efficacy): 21% | inhibition of growth at 2 ppm (Botrytis cinerea [6]; [14]): 2% | inhibition of growth at 0.08 ppm (Botrytis cinerea [6]; [15]): 9% | inhibition of growth at 2 ppm (Botrytis cinerea [6]; [15]): 5% | inhibition of growth at 0.08 ppm (Alternaria alternate; Alternaria, 0.08 ppm, read-out: Efficacy %): 2% | inhibition of growth at 0.4 ppm (Alternaria alternate; Alternaria, 0.4 ppm, read-out: Efficacy %): 5% | inhibition of growth at 2 ppm (Alternaria alternate; Alternaria, 2.0 ppm, read-out: Efficacy %): 12% | inhibition of growth at 10 ppm (Alternaria alternate; Alternaria, 10.0 ppm, read-out: Efficacy %): 50% | inhibition of growth at 2 ppm (Diaporthe citri; Diaporthe citri, 2.0 ppm, read-out: Efficacy): 0% | inhibition of growth at 10 ppm (Diaporthe citri; Diaporthe citri, 10.0 ppm, read-out: Efficacy): 0%

CCO[PH](=O)[O-].CCO[PH](=O)[O-].CCO[PH](=O)[O-].[Al+3] [fosetylaluminium]
Efficacy (Fusarium culmorum [11]; 0.8 ppm): 7% | Efficacy (Fusarium culmorum [11]; 4.0 ppm): 0% | Efficacy (Fusarium culmorum [11]; 20.0 ppm): 5% | Efficacy (Fusarium culmorum [11]; 100.0 ppm): 9%
